The values below come from article PMC8868518, “Exploring Titanium(IV) Complexes as Potential Antimicrobial Compounds” (Antibiotics, 2022).

Where a name gives a salt, the structure may show the parent alone.

One experiment concerns E. coli (ATCC 25922). As to the kind of experiment: CO-ADD antibacterial assay, growth inhibition (OD600). Format: cell-based, Escherichia coli. As to conditions: up to 32 μg/mL; for MIC / Dmax: Escherichia coli, ATCC25922; for MIC / MIC E. coli: predicted or measured MIC, ≥75% growth inhibition; for Dmax: read-out: Dmax E. coli, maximum % inhibition.
The subject of experiment [1] is C. neoformans (ATCC 208821). As to the kind of experiment: CO-ADD antifungal assay, growth inhibition (resazurin, OD600-570). In kind it is cell-based, Cryptococcus neoformans. The following applies: up to 32 μg/mL; for MIC / Dmax: Cryptococcus neoformans, ATCC208821; for MIC / MIC C. neoformans: predicted or measured MIC, ≥75% growth inhibition, 36 h; for Dmax: read-out: Dmax C. neoformans, maximum % inhibition.

A further experiment relates to C. albicans (ATCC 90028). As to the kind of experiment: CO-ADD antifungal assay, growth inhibition (OD630). In kind it is cell-based, Candida albicans. The following applies: for MIC / Dmax: Candida albicans, ATCC90028; for MIC / MIC C. albicans: predicted or measured MIC, ≥75% growth inhibition, 36 h; for MIC / Dmax / MIC C. albicans / Dmax C. albicans, maximum % inhibition: up to 32 μg/mL; for Dmax: read-out: Dmax C. albicans, maximum % inhibition.

Experiment [2] relates to S. aureus MRSA (ATCC 43300). Kind of experiment: CO-ADD antibacterial assay, growth inhibition (OD600). Format: cell-based, Staphylococcus aureus. As to conditions: for MIC / Dmax: Staphylococcus aureus; for MIC / MIC S. aureus (MRSA): predicted or measured MIC, lowest concentration with ≥75% growth inhibition, 0.25-32 μg/mL, 18 h; for Dmax / Dmax S. aureus (MRSA), maximum % inhibition: up to 32 μg/mL; for Dmax: read-out: Dmax S. aureus (MRSA), maximum % inhibition.

Experiment [3] has as its system A. baumannii (ATCC 19606). Described as above. The following applies: up to 32 μg/mL; for MIC / Dmax: Acinetobacter baumannii, ATCC19606; for MIC / MIC A. baumannii: predicted or measured MIC, ≥75% growth inhibition; for Dmax: read-out: Dmax A. baumannii, maximum % inhibition. Format: cell-based, Acinetobacter baumannii.

As to `O=C(O)c1ccccc1O` [Compound 6, salicylic acid, reference compound], the MIC (in the experiment with E. coli (ATCC 25922); in experiment [1]; in the experiment with C. albicans (ATCC 90028); in experiment [2]; in experiment [3]) was over 32 µg/mL throughout. The Dmax in the experiment on E. coli (ATCC 25922) is -0.01%; in experiment [1], -10.7%; in the experiment with C. albicans (ATCC 90028), 30.9%; in experiment [2], 13.9%; in experiment [3] it was 17.9%.

Regarding `O=C(O)c1ccc(-n2nc3nc2-c2ccccc2[O][Ti]2([O]c4ccccc4-3)[O]c3ccccc3-c3nc(n(-c4ccc(C(=O)O)cc4)n3)-c3ccccc3[O]2)cc1` [Compound 10, titanium(IV) bis(deferasirox)], in the experiment on E. coli (ATCC 25922), the “MIC E. coli” value is over 32 µg/mL and the “Dmax E. coli, maximum % inhibition” value was 20.44%. In experiment [1], the “MIC C. neoformans” value was over 32 µg/mL and the “Dmax C. neoformans, maximum % inhibition” value is reported as −5.72%. In addition, in the experiment on C. albicans (ATCC 90028), the “MIC C. albicans” value is over 32 µg/mL and the “Dmax C. albicans, maximum % inhibition” value is listed as 5.74%. In experiment [2] (converted from 16 μg/mL), the “MIC against MRSA in units of molarity” value was 20.2 µM. In experiment [2], the “MIC S. aureus (MRSA)” value is 16 µg/mL and the “Dmax S. aureus (MRSA), maximum % inhibition” value is 98.2%. For the same compound, in experiment [2] (listed as Ti(Deferasirox)2), the “Dmax S. aureus (MRSA), maximum % inhibition” value was about 100%. Also, in experiment [3], the “MIC A. baumannii” value was over 32 µg/mL and the “Dmax A. baumannii, maximum % inhibition” value was 16.28%.

On to `O=C([O-])C(=O)O.O=C([O-])C(=O)O.[K+].[K+].[O]=[Ti]` [Compound 14, Potassium dioxalatoxotitanate(IV) dihydrate], for which, in the experiment on E. coli (ATCC 25922), the “MIC E. coli” value was over 32 µg/mL and the “Dmax E. coli, maximum % inhibition” value turned out to be 11.0%. In addition, the “MIC C. neoformans” value in experiment [1] was over 32 µg/mL. The “C. albicans MIC value in units of molarity” value in the experiment with C. albicans (ATCC 90028) (converted from 32 μg/mL (Table S1)) came out at 90.4 µM. In the experiment with C. albicans (ATCC 90028), the “MIC C. albicans” value was 32 µg/mL and the “Dmax C. albicans, maximum % inhibition” value worked out at 77.3%. The “Dmax C. albicans, maximum % inhibition” value with C. albicans (ATCC 90028) (listed as K2[TiO(Oxalate)2]) is listed as “greater than 75%”. For the same compound, in experiment [2], the “MIC S. aureus (MRSA)” value was over 32 µg/mL and the “Dmax S. aureus (MRSA), maximum % inhibition” value came to 40.5%. For the same compound, in experiment [3], the “MIC A. baumannii” value was over 32 µg/mL and the “Dmax A. baumannii, maximum % inhibition” value is recorded as 8.2%.

On to `[K+].[K+].c1ccc2cc3c(cc2c1)[O][Ti-2]12([O]3)([O]c3cc4ccccc4cc3[O]1)[O]c1cc3ccccc3cc1[O]2` [Compound 8, K2[Ti(Naphthalene-2,3-diolate)3]], for which, in the experiment with E. coli (ATCC 25922), the “MIC E. coli” value was over 32 µg/mL and the “Dmax E. coli, maximum % inhibition” value is recorded as 2.67%. For the same compound, in experiment [1], the “MIC C. neoformans” value was over 32 µg/mL and the “Dmax C. neoformans, maximum % inhibition” value is reported as −1.45%. In the experiment on C. albicans (ATCC 90028), the “MIC C. albicans” value is over 32 µg/mL and the “Dmax C. albicans, maximum % inhibition” value was determined as 57.57%. In addition, in experiment [2], the “MIC S. aureus (MRSA)” value is over 32 µg/mL and the “Dmax S. aureus (MRSA), maximum % inhibition” value was found to be 52.5%. In experiment [3], the “MIC A. baumannii” value was over 32 µg/mL and the “Dmax A. baumannii, maximum % inhibition” value came to 24.76%.

As for [Cu(Deferasirox)(H2O)]2 [Compound 15], in the experiment on E. coli (ATCC 25922), the “MIC E. coli” value was over 32 µg/mL and the “Dmax E. coli, maximum % inhibition” value is listed as −9.5%. In addition, the “MIC C. neoformans” value in experiment [1] was over 32 µg/mL. Besides, in the experiment on C. albicans (ATCC 90028), the “MIC C. albicans” value was over 32 µg/mL and the “Dmax C. albicans, maximum % inhibition” value amounted to 34.0%. Moreover, in experiment [2], the “MIC S. aureus (MRSA)” value is over 32 µg/mL and the “Dmax S. aureus (MRSA), maximum % inhibition” value was determined as 26.9%. In addition, in experiment [3], the “MIC A. baumannii” value was over 32 µg/mL and the “Dmax A. baumannii, maximum % inhibition” value was found to be 7.8%.

For the compound `O=C(O)CC(O)(CC(=O)O)C(=O)O` [Compound 1, Trisodium citrate, reference compound], the MIC (with E. coli (ATCC 25922); in experiment [1]; with C. albicans (ATCC 90028); in experiment [2]; in experiment [3]) was over 32 µg/mL throughout. For the same compound, the Dmax was 6.14% in the experiment on E. coli (ATCC 25922); -8.24% in experiment [1]; 0.28% in the experiment on C. albicans (ATCC 90028); 10.6% in experiment [2]; 18% in experiment [3].

With `Oc1cc2ccccc2cc1O` [Compound 2, 2,3-dihydroxynaphthalene, reference compound], the MIC (in the experiment with E. coli (ATCC 25922); in experiment [1]; in the experiment on C. albicans (ATCC 90028); in experiment [2]; in experiment [3]) was over 32 µg/mL in each case. The Dmax with E. coli (ATCC 25922) was 6.86%; in experiment [1] it was -9.97%; with C. albicans (ATCC 90028), 16.3%; in experiment [2] it was 12.6%; in experiment [3], 31.3%.
